The results in this text go back to patent US12655150B2 (Cedilla Therapeutics, Inc., priority 2021, dated 2026).

The structures appear in SMILES notation. Where only a bound is given, the exact number is not on record here.

For this test, the system named is NCI-H226. Kind of test: 72H TEAD Proliferation Assay (Cell Titer Glo 2.0). The format is cell-based. The conditions noted are these: Homo sapiens, NCI-H226, 72 h, CTG 2.0, cell line not given (NCI-H226 responsive, NCI-H28 non-responsive). In outline:
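NF2-deficient NCI-H226 mesothelioma cells, TEAD-dependent, treated 72 h; NF2-wild-type NCI-H28 serves as the TEAD-independent counter-screen for off-target cytotoxicity. Viable cells quantified by CellTiter-Glo 2.0 luminescence; background and time-zero signal subtracted, GI50 from nonlinear dose-response fit.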
Molecule `C=CC(=O)Nc1nc(-c2ccc(C(C)(C)C)cc2)nc2cc(C(=O)O)ccc12` [I-104, 4-Acrylamido-2-(4-(tert-butyl)phenyl)quinazoline-7-carboxylic acid] had a GI50 of more than 10 µM.

The molecule `C=CC(=O)Nc1ccc2cnc(-c3ccc(C)cc3)nc2c1` [I-81, N-(2-(p-Tolyl)quinazolin-7-yl)acrylamide] gave a GI50 of 1 to 5 µM. In turn, `CC(C)(C)c1ccc(CCn2ccc3cc(C(=O)O)ccc32)cc1` [Compound I-161] had a GI50 of more than 10 µM.

`CC(C)(C)c1ccc(-c2nc3cc(C#N)ccc3n3ccnc23)cc1` [I-75, 4-(4-(tert-Butyl)phenyl)imidazo[1,2-a]quinoxaline-7-carbonitrile] registered a GI50 of more than 10 µM. Consider `O=C(O)c1ccc2c(c1)nc(NC1CCCC(C(F)(F)F)C1)c1cccn12` (centres unmarked) [I-19, 4-((3-(Trifluoromethyl)cyclohexyl)amino)pyrrolo[1,2-a]quinoxaline-7-carboxylic acid], for which the GI50 was in the range of 1 to 5 µM. In the case of `Cc1cc(-c2ccc(C(F)(F)F)cc2)nc2cc(C(N)=O)ccc12` [I-258, 4-Methyl-2-(4-(trifluoromethyl)phenyl)quinoline-7-carboxamide] it was 1 to 5 µM; in that of `Cc1cc(-c2ccc(C(F)(F)F)cc2)nc2cc(C(=O)N[C@H](C)CO)ccc12` [I-261, (R)—N-(1-hydroxypropan-2-yl)-4-methyl-2-(4-(trifluoromethyl)phenyl)quinoline-7-carboxamide], not above 1 µM.

`C=CC(=O)Nc1ccc2c(c1)nc(-c1ccc(C(F)(F)F)cn1)c1nccn12` [I-312, N-(4-(5-(trifluoromethyl)pyridin-2-yl)imidazo[1,2-a]quinoxalin-7-yl)acrylamide]: the GI50 is not above 1 µM. For the molecule `O=C(/C=C/CF)NCc1cn2ccnc2c(-c2ccc(C(F)(F)F)cc2F)n1` [I-291, (E)-4-fluoro-N-((8-(2-fluoro-4-(trifluoromethyl)phenyl)imidazo[1,2-a]pyrazin-6-yl)methyl)but-2-enamide], the GI50 was not above 1 µM. With `CC(CO)NC(=O)c1ccc2c(c1)nc(-c1ccc(C(C)(C)C)cc1)c1cccn12` (centres unmarked) [I-186, 4-(4-(tert-butyl)phenyl)-N-(1-hydroxypropan-2-yl)pyrrolo[1,2-a]quinoxaline-7-carboxamide] the figure was 1 to 5 µM; with `CC(C)(C)c1ccc(-c2nc(C(=O)O)cn3cnnc23)cc1` [I-93, 8-(4-(tert-Butyl)phenyl)-[1,2,4]triazolo[4,3-a]pyrazine-6-carboxylic acid], more than 10 µM. As for `CC(C)(C)c1ccc(-c2nc3cc(C(=O)O)cnc3n3cccc23)cc1` [I-139, 6-(4-(tert-Butyl)phenyl)pyrido[3,2-e]pyrrolo[1,2-a]pyrazine-3-carboxylic acid], the GI50 is not above 1 µM. In turn, `CC(=O)Nc1ccc2c(c1)nc(-c1ccc(C(C)(C)C)cc1)c1nccn12` [I-135, N-(4-(4-(tert-butyl)phenyl)imidazo[1,2-a]quinoxalin-7-yl)acetamide] returned a GI50 of 1 to 5 µM. Molecule `CC(C)(C)c1cccc(-c2nc3cc(C(=O)O)ccc3n3ccnc23)c1` [I-65, 4-(3-(tert-Butyl)phenyl)imidazo[1,2-a]quinoxaline-7-carboxylic acid] had a GI50 of more than 10 µM. In the case of `C=CC(=O)NC(C)c1cn2ccnc2c(-c2ccc(C(F)(F)F)cc2)n1` (centres unmarked) [I-172, N-(1-(8-(4-(trifluoromethyl)phenyl)imidazo[1,2-a]pyrazin-6-yl)ethyl)acrylamide] it was not above 1 µM; in that of `O=C(O)c1cnc2c(c1)nc(N1CCC3(CC1)CC3)c1cccn12` [I-138, 6-(6-Azaspiro[2.5]octan-6-yl)pyrido[3,2-e]pyrrolo[1,2-a]pyrazine-3-carboxylic acid], 1 to 5 µM; in that of `C=CC(=O)NCc1cn2cc(C)nc2c(-c2ccc(C(F)(F)F)cc2)n1` [I-241, N-((2-methyl-8-(4-(trifluoromethyl)phenyl)imidazo[1,2-a]pyrazin-6-yl)methyl)acrylamide], not above 1 µM.
